From patent US20160030407A1, “Method of Treating Inflammatory Lung Disease” (priority 2010, published 2016)

Legend:
[1] = Plasma toxicokinetics after single i.v. bolus; type: in vivo, Sprague-Dawley rats; conditions: for Concentration in rat plasma: Anatabine 0.1 mg/kg dose group, individual rats; for Avg. Conc. (Combined Male and Female) / Avg. Conc. (Male or Female): Rat Plasma; for half-life: Sprague-Dawley, iv
Procedure: Six rats (3 males and 3 females) were dosed per dose group. […] Plasma and brain homogenates were stored at −80° C. until analysis.
An additional 48 rats (24 males and 24 females) received a single intravenous dose via the tail vein at the same doses as mentioned above. At 30 and 360 minutes post administration, 6 rats (3 males and 3 females) per dose group, per time point were euthanized, bled via cardiac puncture, and perfused, and brains were collected. The brains were homogenized. Blood was spun, and plasma was collected. Plasma and brain homogenate were stored at −80° C.
Four aliquots of each dose level formulation were collected and stored at −80° C. The test compound, corresponding dose level, number of animals, and sample collection times for Phase I of the study are shown in Table 3. The test compound, corresponding dose level, number of animals, and sample collection times for Phase II of the study are shown in Table 4. The physical signs of each animal were monitored following administration of the test compound.
The animals were weighed prior to dosing and received a single i.v. dose of either test compound at a volume of 5 mL/kg. Blood was collected via the venus plexus (retro-orbital) into tubes containing (K2) EDTA. No more than 0.5 mL was collected per time point. […] The brain was removed, weighed, homogenized in sterile 0.9% saline at a volume equal to its weight, and stored at −80° C.
Plasma was separated according to the instructions for MICROTAINER® brand collection tubes (3 minutes, 2000×g). Plasma was decanted into microfuge tubes and stored at −80° C. Remaining test compound was stored at −80° C.
The amount of the test agent in the supernatant was determined by liquid chromatography tandem mass spectrometry (LC/MS/MS).
Analysis. Samples were analyzed by LC/MS/MS using an Agilent 6410 mass spectrometer coupled with an Agilent 1200 high pressure liquid chromatography (HPLC) and a CTC PAL chilled autosampler, all controlled by MassHunter software (Agilent). After separation on a hydrophilic interaction liquid chromatography (HILIC) HPLC column (Sepax) using an acetonitrile-ammonium acetate/acetic acid gradient system, peaks were analyzed by mass spectrometry (MS) using ESI ionization in multiple reaction monitoring (MRM) mode. MassHunter software was used to calculate the concentration of the test compounds in samples from the peak area using the appropriate calibration curves.

nAChR α3/β4 = nAChR α3/β4 (Homo sapiens, UniProt P30926+P32297); experiment: nAChR α3/β4 channel agonist assay (FLIPR); type: cell-based; conditions: 0.3-1000 μM
Procedure: Briefly, cells were incubated with […] dye for 30 min at 37° C.

[2] = rat plasma, single i.v. 0.1 mg/kg, female
[3] = rat plasma, single i.v. 0.75 mg/kg, male
[4] = rat plasma, single i.v. 0.1 mg/kg, M + F
[5] = rat plasma, single i.v. 0.1 mg/kg, male
[6] = rat plasma, single i.v. 0.75 mg/kg, M + F
[7] = rat plasma, single i.v. 0.75 mg/kg, female
[8] = rat plasma, single i.v. 1.0 mg/kg, M + F
[9] = rat plasma, single i.v. 1.0 mg/kg, female
[10] = rat plasma, single i.v. 1.0 mg/kg, male

Sequence of nAChR α3/β4 (P32297 32-505): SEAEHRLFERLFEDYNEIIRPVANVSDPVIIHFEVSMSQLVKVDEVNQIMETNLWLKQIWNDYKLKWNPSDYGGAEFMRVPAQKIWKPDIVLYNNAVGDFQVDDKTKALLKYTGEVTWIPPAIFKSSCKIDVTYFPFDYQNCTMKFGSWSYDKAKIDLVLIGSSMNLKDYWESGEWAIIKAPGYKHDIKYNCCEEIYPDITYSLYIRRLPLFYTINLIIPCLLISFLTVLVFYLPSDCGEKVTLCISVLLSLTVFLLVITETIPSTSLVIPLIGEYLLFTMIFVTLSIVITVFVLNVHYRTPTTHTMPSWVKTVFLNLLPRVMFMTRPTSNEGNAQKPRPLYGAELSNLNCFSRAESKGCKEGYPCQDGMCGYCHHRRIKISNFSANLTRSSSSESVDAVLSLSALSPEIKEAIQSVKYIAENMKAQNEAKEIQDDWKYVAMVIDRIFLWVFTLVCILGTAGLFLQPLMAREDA
Sequence of nAChR α3/β4 (P30926 22-498): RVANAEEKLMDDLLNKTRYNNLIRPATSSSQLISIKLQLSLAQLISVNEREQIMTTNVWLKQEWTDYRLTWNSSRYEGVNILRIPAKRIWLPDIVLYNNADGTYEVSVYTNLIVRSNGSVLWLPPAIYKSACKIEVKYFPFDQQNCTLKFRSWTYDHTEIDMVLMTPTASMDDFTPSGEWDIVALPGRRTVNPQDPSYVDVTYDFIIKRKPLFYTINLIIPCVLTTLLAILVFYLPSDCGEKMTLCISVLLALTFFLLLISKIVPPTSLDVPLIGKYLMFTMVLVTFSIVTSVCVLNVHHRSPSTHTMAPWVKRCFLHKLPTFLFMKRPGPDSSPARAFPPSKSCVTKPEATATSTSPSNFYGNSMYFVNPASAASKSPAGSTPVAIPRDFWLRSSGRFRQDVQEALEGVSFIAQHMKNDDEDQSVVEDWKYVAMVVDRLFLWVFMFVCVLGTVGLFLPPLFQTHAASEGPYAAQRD

C1=CCC(c2cccnc2)NC1 (racemic) [Anatabine, 1,2,3,6-tetrahydro-[2,3′]bipyridinyl]
Concentration in rat plasma ([1]; rat plasma, time point 4 hr): <LLQ | Concentration in rat plasma ([1]; rat plasma, time point 6 hr): <LLQ | Concentration in rat plasma ([1]; rat plasma, time point 8 hr): <LLQ | Concentration in rat plasma ([1]; rat plasma, time point 24 hr): <LLQ | Avg. Conc. (Combined Male and Female) ([1]; Anatabine 0.1 mg/kg, 8 hr): <LLQ | Avg. Conc. (Combined Male and Female) ([1]; Anatabine 0.1 mg/kg, 24 hr): <LLQ | Avg. Conc. (Male or Female) ([1]; Anatabine 0.1 mg/kg, female, 8 hr): <LLQ | Avg. Conc. (Male or Female) ([1]; Anatabine 0.1 mg/kg, female, 24 hr): <LLQ | Avg. Conc. (Male or Female) ([1]; Anatabine 0.1 mg/kg, male, 6 hr (1st line)): <LLQ | Avg. Conc. (Male or Female) ([1]; Anatabine 0.1 mg/kg, male, 8 hr): <LLQ | Avg. Conc. (Male or Female) ([1]; Anatabine 0.1 mg/kg, male, 24 hr): <LLQ | Avg. Conc. (Combined Male and Female) ([1]; Anatabine 0.75 mg/kg, 24 hr): <LLQ | Avg. Conc. (Male or Female) ([1]; Anatabine 0.75 mg/kg, female, 24 hr): <LLQ | Avg. Conc. (Male or Female) ([1]; Anatabine 0.75 mg/kg, male, 24 hr): <LLQ | Avg. Conc. (Combined Male and Female) ([1]; Anatabine 1.0 mg/kg, 24 hr): <LLQ | Avg. Conc. (Male or Female) ([1]; Anatabine 1.0 mg/kg, female, 24 hr): <LLQ | Avg. Conc. (Male or Female) ([1]; Anatabine 1.0 mg/kg, male, 24 hr): <LLQ | half-life [1, 2]: 1.64 ± 0.59 h | half-life [1, 3]: 1.64 ± 0.12 h | half-life ([1]; both sexes, rat plasma, single i.v. 0.75 mg/kg, M + F): 1.68 ± 0.09 h | half-life ([1]; both sexes, rat plasma, single i.v. 1.0 mg/kg, M + F): 1.64 ± 0.25 h | apparent volume of distribution (VD) compared with nicotine ([1]; rat plasma, single i.v.): significantly greater than that of nicotine | AUC0→∞ [1, 4]: 35.0 ± 11.6 ng·h/mL | VD [1, 4]: 6.08 ± 0.45 L/kg | t1/2 [1, 4]: 1.44 ± 0.48 h | AUC0→∞ [1, 2]: 37.9 ± 15.9 ng·h/mL | VD [1, 2]: 6.52 ± 0.66 L/kg | AUC0→∞ [1, 5]: 32.0 ± 7.7 ng·h/mL | VD [1, 5]: 5.29 ± 0.49 L/kg | t1/2 [1, 5]: 1.25 ± 0.32 h | AUC0→∞ [1, 6]: 504.4 ± 63.5 ng·h/mL | VD [1, 6]: 3.33 ± 0.13 L/kg | AUC0→∞ [1, 7]: 544.5 ± 62.7 ng·h/mL | VD [1, 7]: 3.19 ± 0.15 L/kg | t1/2 [1, 7]: 1.73 ± 0.03 h | AUC0→∞ [1, 3]: 464.4 ± 36.2 ng·h/mL | VD [1, 3]: 3.48 ± 0.18 L/kg | AUC0→∞ [1, 8]: 710.07 ± 88.4 ng·h/mL | VD [1, 8]: 3.08 ± 0.16 L/kg | AUC0→∞ [1, 9]: 788.9 ng·h/mL | VD [1, 9]: 3.16 ± 0.15 L/kg | t1/2 ([1]; rat plasma, single i.v. 1.0 mg/kg, female, 1 mg/kg): 1.84 h | AUC0→∞ [1, 10]: 631.3 ng·h/mL | VD [1, 10]: 3.01 ± 0.12 L/kg | t1/2 ([1]; rat plasma, single i.v. 1.0 mg/kg, male, 1 mg/kg): 1.44 h | plasma concentration between approximately 6 and 8 hours ([1]; rat, single i.v., nicotine 0.4 mg/kg, anatabine 0.1 mg/kg): below the limits of quantitation | agonist activity (nAChR α3/β4): showed agonist activity
